{"source": "patent US6759422B2", "about": "“Ion channel modulating agents” (Neurosearch A/S, priority 1999, dated 2004)", "data": [{"biological_target": "T1, Intermediate-conductance Ca2+-activated K+ channels (IK channels), hIK (Homo sapiens, UniProt O15554)", "T1 construct": "expressed in transfected cells; host or cells: HEK293", "assay": "Whole-cell patch-clamp recording of ionic current through IK channels stably expressed in HEK293 cells", "assay_type": "cell-based", "details": "1 μM test compound, baseline hIK current set to 100 (>100 activator, <100 blocker, 200 = doubling), whole-cell mode", "method": "In this experiment the ionic current through Intermediate-conductance Ca^2+-activated K^+ channels (IK channels) is recorded in the whole-cell mode of the patch-clamp technique.\nIntermediate-conductance Ca^2+-activated K^+ channels (IK channels) have been cloned from human placenta and stably expressed in HEK293 cells.\nHuman IK (hIK) was excised from pT3T7 (GenBank Acc. No. N56819) using EcoR I and Not I and subcloned into the mammalian expression vector pNS1Z (NeuroSearch), a custom designed derivative of pcDNA3Zeo (InVitrogen) to give the plasmid construct pNS1Z_hIK. HEK293 tissue culture cells were grown in DMEM (Dulbecco's Modified Eagle Medium) supplemented with 10% FCS (foetal calf serum) at 37° C. in 5% CO2. One day prior to transfection, 10^6 cells were plated in a cell culture T25 flask. The following day, cells were transfected using lipofection (20 μL Lipofectamin™, Life Technologies, with 2.5 μg of the plasmid pNS1Z_hIK in a total volume of 540 μL).\nThe lipofection mixture was overlaid on the cells and incubated at 37° C. for 5 hours. The cells were then rinsed with regular media and grown for 72 hours in DMEM, 10% FCS at 37° C. in 5% CO2. […]\nExperiments are carried out on a patch-clamp workstation equipped with an autosampler. […] Data are stored directly on the harddisk and analysed by the IGOR software (wavemetrics, Lake Oswego, USA)\nThe whole-cell configuration of the patch clamp technique is applied. […] Cell capacitance is electronically compensated and the resistance between the pipette and the cell interior (the series resistance, Rs) is measured and compensated for. […]\nThe extracellular (bath) solution contains (conc. in mM): 144 KCl, 0.1 CaCl2, 3 MgCl2, 10 HEPES (pH=7.4). The intracellular (pipette) solution has the following composition (conc. in mM): 144 KCl, 10 EGTA, 10 HEPES (pH=7.2) as well as CaCl2 and MgCl2 in concentrations calculated to result in a free concentration of Ca^2+ between 100 nM and 300 nM. The free concentration of Mg^2+ is calculated to be 1 mM. […]", "values": [{"smiles": "Cc1ccc2sc(N)nc2c1C", "note": "[Compound 2, 2-amino-4,5-dimethylbenzothiazole]", "Ionic Currents: Value determined using 1 μM of the test compound": 130}, {"smiles": "Nc1nc2c3c(ccc2s1)CCCC3", "note": "[Compound 3, 2-amino-(5,6,7,8-tetrahydronaphto)-[1,2-d]-thiazole]", "Ionic Currents: Value determined using 1 μM of the test compound": 400}, {"smiles": "Nc1nc2c(Cl)c(Cl)ccc2s1", "note": "[Compound 1, 2-amino-4,5-dichlorobenzothiazole]", "Ionic Currents: Value determined using 1 μM of the test compound": 170}]}]}
